In US20090317461A1, “ORAL COMPOSITIONS EFFECTIVE FOR THE TREATMENT OF ORAL CAVITY MALODOR ASSOCIATED WITH THE CONSUMPTION OF ODOR-CAUSING COMPOUNDS” (Wm. Wrigley Jr. Company, priority 2006, published 2009):

What was measured:
[1] = Menthol treatment of garlic model solution, TIC chromatogram peak area (Example 47)
Experimental: The following example details testing of menthol for treatment of solutions with characteristic garlic aroma. Model solutions containing raw chopped garlic dispersed in water were prepared as described in Example 1. Portions of model solution (2.5 g) were treated with menthol in varying amounts (0.5 mg, 1.0 mg, and 1.5 mg).

[2] = Sensory analysis: ten panelists rate odor intensity of raw macerated garlic solution with and without active; conditions: for reduction of odor (intensity) of raw macerated garlic in water: sensory panel; for Odor Intensity (0-100), Mean: N = 10 panelists
Experimental: Sensory analysis of the solutions utilized for analytical analyses of the raw garlic described above was conducted by ten panelists who evaluated the odor intensity of the model solution (raw macerated garlic) with and without the different levels of added active. Odor intensity was assessed utilizing a 0-100 point scale ballot with 0=no odor and 100=very strong odor.

[3] = Headspace diallyl disulfide of garlic model solution treated with menthone, GC/MS at 5 hour intervals (Example 3); conditions: menthone 1.63 mg in 2.5 g model solution; at each headspace analysis interval (5 hour intervals)
Experimental: A model solution containing raw chopped garlic dispersed in water was prepared as described in Example 1. […] For comparison purposes, the diallyl disulfide content of the headspace of a control model solution (i.e., no menthone added) was also analyzed.

Row | SMILES | reduction in odor-causing compounds ([1]; 0.5 mg in 2.5 g model solution) | reduction in odor-causing compounds ([1]; 1 mg in 2.5 g model solution) | reduction in odor-causing compounds ([1]; 1.5 mg in 2.5 g model solution) | reduction of odor (intensity) of raw macerated garlic in water ([2]; active concentration 0.3 mg/g) | reduction of odor (intensity) of raw macerated garlic in water ([2]; active concentration 3 mg/g) | Odor Intensity (0-100), Mean ([2]; menthone 0.33 mg/g) | Odor Intensity (0-100), Mean ([2]; menthone 1 mg/g) | Odor Intensity (0-100), Mean ([2]; menthone 3 mg/g) | less diallyl disulfide in headspace than control model solution [3]
1 | CC1CCC(C(C)C)C(O)C1 (stereo not drawn) [menthol] | approximately 43% | approximately 51% | approximately 60% |  |  |  |  |  | 
2 | CC(C)[C@@H]1CC[C@@H](C)CC1=O [menthone] |  |  |  | 48% | 80% | 5.2 | 2.7 | 2 | at least 50%
